Measurements as given in US20250361230A1, “LATS Inhibitors and Uses Thereof” (The USA, as Represented by the Secretary, Dept. of Heath …, priority 2022, published 2025).

Tests used:
Format in all cases: biochemical
LATS1 = target: T1, LATS1 (Homo sapiens, UniProt O95835); experiment: RBC HotSpot kinase assay (33P-ATP, P81 filter-binding), LATS1; conditions: Table 28, biochemical kinase assay; read-out: LATS1 IC50
T1 sequence (O95835 1-1130): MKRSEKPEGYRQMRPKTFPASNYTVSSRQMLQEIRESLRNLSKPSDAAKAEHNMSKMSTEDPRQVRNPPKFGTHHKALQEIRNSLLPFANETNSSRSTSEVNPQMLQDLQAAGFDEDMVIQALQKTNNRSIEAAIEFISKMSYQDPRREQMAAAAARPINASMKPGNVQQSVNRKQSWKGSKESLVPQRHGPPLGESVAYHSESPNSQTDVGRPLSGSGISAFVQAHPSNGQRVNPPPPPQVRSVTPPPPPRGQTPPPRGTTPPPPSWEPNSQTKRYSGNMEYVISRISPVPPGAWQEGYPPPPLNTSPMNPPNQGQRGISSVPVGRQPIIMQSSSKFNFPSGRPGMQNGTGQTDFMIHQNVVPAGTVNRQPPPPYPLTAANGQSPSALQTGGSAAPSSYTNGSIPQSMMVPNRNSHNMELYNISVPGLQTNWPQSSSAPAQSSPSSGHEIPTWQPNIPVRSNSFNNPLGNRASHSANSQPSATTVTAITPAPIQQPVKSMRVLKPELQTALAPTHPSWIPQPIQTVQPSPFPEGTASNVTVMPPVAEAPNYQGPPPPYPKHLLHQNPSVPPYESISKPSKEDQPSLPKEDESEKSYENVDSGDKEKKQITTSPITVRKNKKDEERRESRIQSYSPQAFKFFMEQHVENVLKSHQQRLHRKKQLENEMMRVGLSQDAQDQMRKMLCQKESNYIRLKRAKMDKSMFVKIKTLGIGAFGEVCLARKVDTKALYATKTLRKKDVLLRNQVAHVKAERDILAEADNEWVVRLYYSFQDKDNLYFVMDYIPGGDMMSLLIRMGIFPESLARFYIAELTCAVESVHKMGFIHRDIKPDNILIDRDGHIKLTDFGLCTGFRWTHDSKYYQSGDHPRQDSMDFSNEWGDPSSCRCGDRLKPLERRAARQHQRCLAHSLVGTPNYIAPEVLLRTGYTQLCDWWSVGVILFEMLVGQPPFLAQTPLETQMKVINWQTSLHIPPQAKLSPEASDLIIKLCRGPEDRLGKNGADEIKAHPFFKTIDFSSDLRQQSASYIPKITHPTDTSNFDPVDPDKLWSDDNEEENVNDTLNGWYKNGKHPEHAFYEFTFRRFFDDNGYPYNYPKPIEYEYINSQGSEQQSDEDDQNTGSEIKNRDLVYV
Procedure, shortened: (§1)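 Radiometric 33P-ATP kinase reaction in 20 mM Hepes pH 7.5, 10 mM MgCl2, 1 mM EGTA, 0.01% Brij35, 0.02 mg/ml BSA, 0.1 mM Na3VO4, 2 mM DTT, 1% DMSO. Compound preincubated with kinase and substrate 20 min, then 2 h at room temperature; P81 filter-binding read-out. IC50 (nM) from 10-point singlet curves.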

LATS2 = target: T2, LATS2 (Homo sapiens, UniProt Q9NRM7); experiment: RBC HotSpot kinase assay (33P-ATP, P81 filter-binding), LATS2; conditions: Table 28, biochemical kinase assay; read-out: LATS2 IC50
T2 sequence (Q9NRM7 1-1088): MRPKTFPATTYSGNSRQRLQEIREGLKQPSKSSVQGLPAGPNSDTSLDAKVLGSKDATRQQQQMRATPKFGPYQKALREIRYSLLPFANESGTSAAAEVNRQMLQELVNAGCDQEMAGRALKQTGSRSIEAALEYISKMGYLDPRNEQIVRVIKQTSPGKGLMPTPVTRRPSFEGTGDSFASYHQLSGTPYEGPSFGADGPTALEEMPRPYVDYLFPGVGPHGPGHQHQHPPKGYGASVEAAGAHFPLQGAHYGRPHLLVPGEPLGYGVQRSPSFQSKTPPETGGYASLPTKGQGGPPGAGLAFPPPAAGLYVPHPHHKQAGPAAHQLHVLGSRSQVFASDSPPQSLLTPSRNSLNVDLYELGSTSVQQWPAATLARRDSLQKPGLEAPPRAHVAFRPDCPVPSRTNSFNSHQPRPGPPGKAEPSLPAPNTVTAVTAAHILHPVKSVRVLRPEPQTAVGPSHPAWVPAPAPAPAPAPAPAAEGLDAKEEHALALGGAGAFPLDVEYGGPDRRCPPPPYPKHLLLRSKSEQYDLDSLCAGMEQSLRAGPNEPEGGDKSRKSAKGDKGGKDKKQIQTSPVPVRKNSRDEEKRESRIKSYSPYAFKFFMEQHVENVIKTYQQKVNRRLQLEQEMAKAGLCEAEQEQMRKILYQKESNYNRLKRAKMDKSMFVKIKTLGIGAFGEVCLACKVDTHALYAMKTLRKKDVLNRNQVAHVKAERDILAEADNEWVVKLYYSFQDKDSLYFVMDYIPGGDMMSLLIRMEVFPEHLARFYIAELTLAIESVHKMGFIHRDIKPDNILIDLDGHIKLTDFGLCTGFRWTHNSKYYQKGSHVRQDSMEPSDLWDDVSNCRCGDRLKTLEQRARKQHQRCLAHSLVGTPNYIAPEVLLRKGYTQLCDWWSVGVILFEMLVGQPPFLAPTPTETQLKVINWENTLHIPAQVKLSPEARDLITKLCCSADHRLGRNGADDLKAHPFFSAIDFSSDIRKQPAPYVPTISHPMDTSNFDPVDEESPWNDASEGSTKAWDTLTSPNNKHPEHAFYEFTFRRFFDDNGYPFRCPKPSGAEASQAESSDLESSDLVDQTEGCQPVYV
Procedure, shortened: as §1

AKT = AKT (Homo sapiens, UniProt P31749); experiment: RBC HotSpot kinase assay (33P-ATP, P81 filter-binding), AKT; conditions: Table 28, biochemical kinase assay; read-out: AKT IC50
AKT, sequence (P31749 whole entry): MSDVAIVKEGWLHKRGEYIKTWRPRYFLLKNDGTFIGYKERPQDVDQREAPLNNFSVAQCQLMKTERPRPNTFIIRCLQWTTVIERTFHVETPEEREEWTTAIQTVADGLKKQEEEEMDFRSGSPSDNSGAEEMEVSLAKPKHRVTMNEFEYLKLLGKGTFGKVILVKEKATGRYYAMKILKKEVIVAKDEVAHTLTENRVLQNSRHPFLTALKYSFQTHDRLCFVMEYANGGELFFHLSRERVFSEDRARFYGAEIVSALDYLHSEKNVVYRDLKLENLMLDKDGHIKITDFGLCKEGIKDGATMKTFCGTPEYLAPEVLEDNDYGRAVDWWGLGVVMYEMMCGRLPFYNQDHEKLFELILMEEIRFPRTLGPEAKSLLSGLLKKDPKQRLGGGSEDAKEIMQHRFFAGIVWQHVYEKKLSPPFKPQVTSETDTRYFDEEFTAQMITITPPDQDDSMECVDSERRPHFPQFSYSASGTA
Procedure, shortened: as §1

`Cc1cc(-c2ccnc3[nH]cc(F)c23)cc(F)c1[C@@]1(O)[C@H](C)CN(C(=O)CN(C)C)C[C@@H]1C` [Compound 71, 2-(dimethylamino)-1-((3S,4s,5R)-4-(2-fluoro-4-(3-fluoro-1H-pyrrolo[2,3-b]pyridin-4-yl)-6-methylphenyl)-4-hydroxy-3,5-dimethylpiperid-1-yl)ethan-1-one] was tested, and the IC50 (LATS1) was 11.3 nM, the IC50 (LATS2) was 3.7 nM and the IC50 (AKT) was 939 nM.

In the case of `C[C@@H]1CN(C(=O)C2CC(C)(C)C2)C[C@H](C)C1(O)c1c(F)cc(-c2ccnc3[nH]cc(F)c23)cc1F` (stereo partly drawn) [Compound 72, ((3S,5R)-4-(2,6-difluoro-4-(3-fluoro-1H-pyrrolo[2,3-b]pyridin-4-yl)phenyl)-4-hydroxy-3,5-dimethylpiperidin-1-yl)(3,3-dimethylcyclobutyl) methanone], the IC50 (LATS1) is reported as 27.4 nM, the IC50 (LATS2) is reported as 60 nM and the IC50 (AKT) is reported as > 10000 nM.

Molecule `Cc1cc(-c2ccnc3[nH]cc(F)c23)cc(F)c1C1(O)[C@H](C)CN(C(=O)C2CC(F)(F)C2)C[C@@H]1C` (stereo partly drawn) [Compound 73, (3,3-difluorocyclobutyl) ((3S,5R)-4-(2-fluoro-4-(3-fluoro-1H-pyrrolo[2,3-b]pyridin-4-yl)-6-methylphenyl)-4-hydroxy-3,5-dimethylpiperidin-1-yl)methanone] has an IC50 (LATS1) of 14.7 nM, an IC50 (LATS2) of 32.7 nM and an IC50 (AKT) of 6470 nM.

`C[C@@H]1CN(C(=O)C2CC(C(F)(F)F)C2)C[C@H](C)C1(O)c1c(F)cc(-c2ccnc3[nH]cc(F)c23)cc1F` (stereo partly drawn) [Compound 74, ((3S,5R)-4-(2,6-difluoro-4-(3-fluoro-1H-pyrrolo[2,3-b]pyridin-4-yl)phenyl)-4-hydroxy-3,5-dimethylpiperidin-1-yl)(3-(trifluoromethyl)cyclobutyl)methanone] was tested, and the IC50 (LATS1) was 35.3 nM, the IC50 (LATS2) was 12.2 nM and the IC50 (AKT) was > 10000 nM.

Work on `C[C@@H]1CN(C(=O)CN)C[C@H](C)[C@@]1(O)c1ccc(-c2ccnc3[nH]cc(F)c23)cc1Cl` [Compound 75, 2-amino-1-((3R,4s,S5S)-4-(2-chloro-4-(3-fluoro-1H-pyrrolo[2,3-b]pyridin-4-yl)phenyl)-4-hydroxy-3,5-dimethylpiperid-1-yl)ethan-1-one] yielded an IC50 (LATS1) of 19.9 nM, an IC50 (LATS2) of 5 nM and an IC50 (AKT) of 140 nM.

`Cc1nc(-c2ccnc3[nH]cc(F)c23)ccc1C1(O)[C@H](C)CN(C(=O)CN)C[C@@H]1C` (stereo partly drawn) [Compound 76, 2-amino-1-((3S,5R)-4-(6-(3-fluoro-1H-pyrrolo[2,3-b]pyridin-4-yl)-2-methylpyridin-3-yl)-4-hydroxy-3,5-dimethylpiperidin-1-yl)ethan-1-one] showed an IC50 (LATS1) of 29.8 nM, an IC50 (LATS2) of 18.9 nM and an IC50 (AKT) of 1720 nM.

For `C[C@@H]1CN(C(=O)C(C)(C)N)C[C@H](C)C1(O)c1c(F)cc(-c2ccnc3[nH]cc(F)c23)cc1F` (stereo partly drawn) [Compound 77, 2-amino-1-((3S,5R)-4-(2,6-difluoro-4-(3-fluoro-1H-pyrrolo[2,3-b]pyridin-4-yl)phenyl)-4-hydroxy-3,5-dimethylpiperidin-1-yl)-2-methylpropan-1-one], the IC50 (LATS1) was 24.6 nM, the IC50 (LATS2) was 19.3 nM and the IC50 (AKT) was 885 nM.

`C[C@@H]1CN(C(=O)C2(N)CC2)C[C@H](C)C1(O)c1c(F)cc(-c2ccnc3[nH]cc(F)c23)cc1F` (stereo partly drawn) [Compound 78, (1-aminocyclopropyl) ((3S,5R)-4-(2,6-difluoro-4-(3-fluoro-1H-pyrrolo[2,3-b]pyridin-4-yl)phenyl)-4-hydroxy-3,5-dimethylpiperidin-1-yl)methanone] was tested, and the IC50 (LATS1) was 16.9 nM, the IC50 (LATS2) was 34 nM and the IC50 (AKT) was 2430 nM.

For `C[C@@H]1CN(C(=O)C2(N)CC(F)(F)C2)C[C@H](C)C1(O)c1c(F)cc(-c2ccnc3[nH]cc(F)c23)cc1F` (stereo partly drawn) [Compound 79, (1-amino-3,3-difluorocyclobutyl) ((3S,5R)-4-(2,6-difluoro-4-(3-fluoro-1H-pyrrolo[2,3-b]pyridin-4-yl)phenyl)-4-hydroxy-3,5-dimethylpiperidin-1-yl)methanone], the IC50 (LATS1) was 12.8 nM, the IC50 (LATS2) was 29.5 nM and the IC50 (AKT) was 5140 nM.

In the case of `C[C@@H]1CN(C(=O)CN(C)C)C[C@H](C)C1(O)c1c(F)cc(-c2ccnc3[nH]cc(F)c23)cc1F` (stereo partly drawn) [Compound 80, 1-((3S,5R)-4-(2,6-difluoro-4-(3-fluoro-1H-pyrrolo[2,3-b]pyridin-4-yl)phenyl)-4-hydroxy-3,5-dimethylpiperidin-1-yl)-2-(dimethylamino) ethan-1-one], the IC50 (LATS1) is reported as 12.3 nM, the IC50 (LATS2) is reported as 12.8 nM and the IC50 (AKT) is reported as 700 nM.

Molecule `C[C@@H]1CN(C(=O)[C@@H]2COCCN2)C[C@H](C)C1(O)c1c(F)cc(-c2ccnc3[nH]cc(F)c23)cc1F` (stereo partly drawn) [Compound 81, ((3S,5R)-4-(2,6-difluoro-4-(3-fluoro-1H-pyrrolo[2,3-b]pyridin-4-yl)phenyl)-4-hydroxy-3,5-dimethylpiperidin-1-yl)((S)-morpholin-3-yl)methanone] has an IC50 (LATS1) of 24.1 nM, an IC50 (LATS2) of 22.4 nM and an IC50 (AKT) of 1020 nM.

`C[C@H](N)C(=O)N1C[C@@H](C)C(O)(c2c(F)cc(-c3ccnc4[nH]cc(F)c34)cc2F)[C@@H](C)C1` (stereo partly drawn) [Compound 82, (2S)-2-amino-1-((3S,5R)-4-(2,6-difluoro-4-(3-fluoro-1H-pyrrolo[2,3-b]pyridin-4-yl)phenyl)-4-hydroxy-3,5-dimethylpiperidin-1-yl)propan-1-one] gave an IC50 (LATS1) of 14.5 nM, an IC50 (LATS2) of 14.2 nM and an IC50 (AKT) of 506 nM.

`CNCC(=O)N1C[C@@H](C)C(O)(c2c(F)cc(-c3ccnc4[nH]cc(F)c34)cc2F)[C@@H](C)C1` (stereo partly drawn) [Compound 83, 1-((3S,5R)-4-(2,6-difluoro-4-(3-fluoro-1H-pyrrolo[2,3-b]pyridin-4-yl)phenyl)-4-hydroxy-3,5-dimethylpiperidin-1-yl)-2-(methylamino) ethan-1-one] showed an IC50 (LATS1) of 25 nM, an IC50 (LATS2) of 21.3 nM and an IC50 (AKT) of 570 nM.

Molecule `C[C@@H]1CN(C(=O)[C@@H]2CCCN2)C[C@H](C)C1(O)c1c(F)cc(-c2ccnc3[nH]cc(F)c23)cc1F` (stereo partly drawn) [Compound 84, 4-(4-((3S,5R)-1-(L-prolyl)-4-hydroxy-3,5-dimethylpiperidin-4-yl)-3,5-difluorophenyl)-3-fluoro-1H-pyrrolo[2,3-b]pyridine] has an IC50 (LATS1) of 21.6 nM, an IC50 (LATS2) of 10.3 nM and an IC50 (AKT) of 1470 nM.

`C[C@@H]1CN(C(=O)[C@H]2CCCN2)C[C@H](C)C1(O)c1c(F)cc(-c2ccnc3[nH]cc(F)c23)cc1F` (stereo partly drawn) [Compound 85, 4-(4-((3S,5R)-1-(D-prolyl)-4-hydroxy-3,5-dimethylpiperidin-4-yl)-3,5-difluorophenyl)-3-fluoro-1H-pyrrolo[2,3-b]pyridine] was tested, and the IC50 (LATS1) was 5.8 nM, the IC50 (LATS2) was 4.7 nM and the IC50 (AKT) was 659 nM.
